This passage reports IC50 and CC50 results from patent US12544359B2, “1-aminosulfonyl-2-carboxypyrrole derivatives as metallo-beta-lactamase inhibitors” (INFEX Therapeutics Limited, priority 2019, dated 2026).

The target of one series is NDM-1 (Klebsiella pneumoniae, UniProt C7C422). Briefly: metallo-β-lactamase inhibition assay (nitrocefin). Conditions: 1.5 nM NDM-1, 100 μM nitrocefin, 37° C., pH 7.5. The format is biochemical. The method, then: Compounds of the invention were tested in a metallo-β-lactamase inhibition assay to investigate mechanism of action of the compounds. Results are reported as the concentration of test article required to inhibit enzyme activity by 50% (IC50).
NDM-1, sequence (C7C422 whole entry, looked up, species assumed): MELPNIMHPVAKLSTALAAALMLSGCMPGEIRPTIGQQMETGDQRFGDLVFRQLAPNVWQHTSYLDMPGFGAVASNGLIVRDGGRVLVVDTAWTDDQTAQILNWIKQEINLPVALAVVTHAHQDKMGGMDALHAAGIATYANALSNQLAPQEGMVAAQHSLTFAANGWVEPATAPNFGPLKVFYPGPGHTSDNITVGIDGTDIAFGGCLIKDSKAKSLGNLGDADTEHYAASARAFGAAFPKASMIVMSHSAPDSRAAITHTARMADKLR
Inhibition of metallo-β-lactamase enzyme function was performed at 37° C. in buffer at pH 7.5 (50 mM HEPES, 150 mM NaCl, 0.1 mM ZnSO4, 20 μg/mL PEG4000), containing 1.5 nM NDM-1, 100 μM nitrocefin, and a range of concentrations of compound. Absorbance at 490 nm was measured using a BMG LABTECH FLUOstar Omega microplate reader every minute for 30 minutes. IC50s were determined from the average increase in OD per minute versus the Log 10 concentration of compound using GraphPad Prism.

Series [1] in a line: Cytotoxicity Assay (CellTiter-Glo). In kind it is cell-based. Particulars: human, Hep G2 cells (ATCC HB-8065); 24 h exposure; read-out: HepG2 CC50. The method, then: Cytotoxicity was evaluated in human Hep G2 cells (ATCC HB-8065) seeded at a density of 2×10^5 cells per well and incubated for 24 h at 37° C., 5% CO2. Cells were exposed to a doubling dilution series of test article. After 24 h exposure, the viability of the cells was determined using CellTiter-Glo® (Promega, WI, USA) according to the manufacturer's instructions. Results are reported as the concentration of test article required to reduce cell viability by 50% (CC50).

Where a name gives a salt, the structure may show the parent alone.

In turn, `NS(=O)(=O)n1ccc(-c2ccc(C(=O)N[C@@H]3CCNC[C@H]3O)cc2)c1C(=O)O` [Example 38, 3-[4-[[(3R,4R)-3-Hydroxy-4-piperidyl]carbamoyl]phenyl]-1-sulfamoyl-pyrrole-2-carboxylic acid] came in with an IC50 against NDM-1 of 652 nM. Moreover, in series [1], the half-maximal cytotoxic concentration (CC50) at 24 h was more than 256 µg/mL.

Take `NS(=O)(=O)n1ccc(-c2ccc(C(=O)N[C@H]3[C@@H]4CNC[C@@H]43)cc2)c1C(=O)O` [Example 43, 3-[4-[[(1S,5R)-3-Azabicyclo[3.1.0]hexan-6-yl]carbamoyl]phenyl]-1-sulfamoyl-pyrrole-2-carboxylic acid]: the IC50 against NDM-1 is 273 nM. The CC50 at 24 h in series [1] was more than 256 µg/mL.

With `NCC1CCN(C(=O)c2ccc(-c3ccn(S(N)(=O)=O)c3C(=O)O)cc2)CC1` [Example 44, 3-[4-[4-(Aminomethyl)piperidine-1-carbonyl]phenyl]-1-sulfamoyl-pyrrole-2-carboxylic acid], the IC50 against NDM-1 stood at 187 nM. Besides, in series [1], the CC50 at 24 h is more than 256 µg/mL.

Take `NCCNC(=O)c1cccc(-c2ccn(S(N)(=O)=O)c2C(=O)O)c1` [Example 47, 3-[3-(2-Aminoethylcarbamoyl)phenyl]-1-sulfamoyl-pyrrole-2-carboxylic acid hydrochloride]: the IC50 against NDM-1 was 163 nM. In series [1], the CC50 at 24 h was more than 256 µg/mL.

`CC(=O)N1CCC(c2ccn(S(N)(=O)=O)c2C(=O)O)C1` (centres unmarked) [Example 59, 3-[1-Acetylpyrrolidin-3-yl]-1-sulfamoyl-pyrrole-2-carboxylic acid] came in with an IC50 at NDM-1 of 1610 nM. Moreover, in series [1], the CC50 at 24 h was more than 256 µg/mL.

As to `NCC(=O)N1CCCC(c2ccn(S(N)(=O)=O)c2C(=O)O)C1` (centres unmarked) [Example 63, 3-[1-(2-Aminoacetyl)-3-piperidyl]-1-sulfamoyl-pyrrole-2-carboxylic acid], half-maximal inhibition at NDM-1 (IC50) was put at 1760 nM. The half-maximal cytotoxic concentration (CC50) at 24 h in series [1] is more than 256 µg/mL.

As for `N[C@@H](CO)C(=O)N1CCC(c2ccn(S(N)(=O)=O)c2C(=O)O)CC1` [Example 72, 3-[1-[(2S)-2-Amino-3-hydroxy-propanoyl]-4-piperidyl]-1-sulfamoyl-pyrrole-2-carboxylic acid], inhibition against NDM-1 was half-maximal at 1570 nM (IC50). Further, the CC50 at 24 h in series [1] is more than 256 µg/mL.

The molecule `NS(=O)(=O)n1ccc(C2CCN(C(=O)[C@@H]3CCCN3)CC2)c1C(=O)O` [Example 73, 3-[1-[(2S)-Pyrrolidine-2 carbonyl]-4-piperidyl]-1-sulfamoyl-pyirole-2-carboxylic acid] yielded an IC50 on NDM-1 of 568 nM. Further, in series [1], the cytotoxic concentration (CC50) at 24 h was more than 256 µg/mL.

As for `NS(=O)(=O)n1ccc(C2CCN(C(=O)C3CNC3)CC2)c1C(=O)O` [Example 74, 3-[1-(Azetidine-3-carbonyl)-4-piperidyl]-1-sulfamoyl-pyrrole-2-carboxylic acid], half-maximal inhibition against NDM-1 (IC50) required 1550 nM. Moreover, in series [1], the CC50 at 24 h is more than 256 µg/mL.

The molecule `NCCN1CCC(c2ccn(S(N)(=O)=O)c2C(=O)O)CC1` [Example 85, 3-[1-(2-Aminoethyl)-4-piperidyl]-1-sulfamoyl-pyrrole-2-carboxylic acid] returned an IC50 at NDM-1 of 399 nM. Further, the CC50 at 24 h in series [1] is more than 128 µg/mL.

`CNCCN(C)C(=O)C1CCC(c2ccn(S(N)(=O)=O)c2C(=O)O)CC1` (centres unmarked) [Example 87, 3-[4-[Methyl-[2-(methylamino)ethyl]carbamoyl]cyclohexyl]-1-sulfamoyl-pyrrole-2-carboxylic acid]: on NDM-1, 248 nM corresponded to half-maximal inhibition (IC50). The CC50 at 24 h in series [1] was more than 256 µg/mL.

As for `NCC(=O)Nc1ccc(-c2ccn(S(N)(=O)=O)c2C(=O)O)cn1` [Example 93, 3-[6-[(2-Aminoacetyl)amino]-3-pyridyl]-1-sulfamoyl-pyrrole-2-carboxylic acid, sodium salt], the IC50 on NDM-1 turned out to be 162 nM. The CC50 at 24 h in series [1] is more than 256 µg/mL.

As to `NCCC(=O)Nc1ccc(-c2ccn(S(N)(=O)=O)c2C(=O)O)cn1` [Example 94, 3-[6-(3-Aminopropanoylamino)-3-pyridyl]-1-sulfamoyl-pyrrole-2-carboxylic acid, sodium salt], half-maximal inhibition against NDM-1 (IC50) was put at 2490 nM. The CC50 at 24 h in series [1] was more than 256 µg/mL.
